In a melting point compilation (Tetko et al.; mined from patent text by program, amines drawn as free bases though some values may be those of a salt) one finds melting point data, which are given here for 86 compounds.

SMILES strings stand for the structures. Where only a bound is given, the exact number is not on record here.

Take `CCCCCCCCCCCCCCCCOC(=O)CCCCCCCCCCCCC`: the melting point lay within 54 to 56 °C.
To `CCOC(=O)Cc1nn(Cc2ccc(Br)c(Cl)c2)c(=S)c2ccccc12` belongs 124 to 126 °C.
The same measure for `CC(C)(C)OC(=O)NC1CCN(c2c(F)cc3c(=O)c(C(=O)O)cn(C4CC4)c3c2F)C1` (stereo unspecified): 239 to 240 °C; for `CCc1cc2c(c3ccc(O)cc13)OCc1cc(O)ccc1-2`: 184 to 192 °C.
As for `Cc1ccccc1C(=O)Nn1c(=O)c(=O)[nH]c2ccc3ccc([N+](=O)[O-])cc3c21`, the melting point was over 230 °C.
The same measure for `CC(=O)CC(=O)OCCCOC(=O)c1ccc(OCCn2ccnc2)cc1`: 49.5 to 51.5 °C; for `COC(=O)C1=C(COCCn2c(C)nc(C)c2C)NC(C)=C(C(=O)Nc2ccccc2)C1c1ccccc1Cl` (stereo unspecified): 135 to 140 °C.
Compound `CCCCC(=O)Nc1cccc([N+](=O)[O-])c1` showed a melting point of 65 °C.
To `CC(C)(C)c1ccc(C(=O)NCc2ccc3c(c2)C(=O)N(C2CCC(=O)NC2=O)C3=O)cc1` (stereo unspecified) belongs 164 to 166 °C; to `Cc1nc2cc(C(F)(F)F)c(Cl)c(N)c2n1N(C)C`, 173 to 174 °C; to `O=C(C=Cc1ccncc1)C=Cc1ccncc1`, 145 to 146 °C.
The same measure for `NC(=O)N1CC(Oc2cccc(C(F)(F)F)c2)C1`: 151 to 152 °C; for `Cc1oc(-c2cccc(-c3nc(CC(=O)OCc4ccccc4)c(C)o3)c2)nc1CC(=O)OCc1ccccc1`: 98 to 100 °C.
The same measure for `Cc1nccc(N2CCC(O)(CN3CCN(C(=O)c4ccc(F)cc4)CC3)CC2)n1`: 114 to 117 °C; for `Oc1ccc(-c2nc3cc(O)ccc3o2)c(Cl)c1`: 253 to 255 °C; for `Nc1sccc1C(=O)c1ccccc1`: 150 to 152 °C.
The compound `COc1ccc(CCn2ccc3ccc(-c4cccc(C(=O)NCCN(C)C)c4)nc32)cc1OC` registered a melting point of 97 to 98 °C.
To `CCCCCCCCCC(=O)Nc1ccc(S(=O)(=O)Nc2nnc(S(N)(=O)=O)s2)cc1` belongs 242 to 243 °C; to `COCCc1sc2ncnc(N)c2c1-c1ccc(NC(=O)Nc2ccccc2C)cc1`, 217 to 219 °C; to `NC(=O)c1cc(-c2ccncc2)sc1-c1ccncc1`, 240 to 242 °C.
The same measure for `Cc1cc(OC(C)c2ccc(-c3ccccc3-c3nnn(C(c4ccccc4)(c4ccccc4)c4ccccc4)n3)cc2)c2ccccc2n1` (stereo unspecified): 160 to 161 °C.
The same measure for `CCOC(=O)c1cnc2ccc(OCC)nc2c1Nc1ccc(OCC(O)CO)cc1` (stereo unspecified): 143 to 145 °C; for `OCc1cn(-c2c(Cl)cc(C(F)(F)F)cc2Cl)nn1`: 123 to 125 °C; for `C#CCN(c1ccc(C(=O)NC(CCc2nnn[nH]2)C(=O)O)nc1)C1CCc2cc3nc(C)[nH]c(=O)c3cc21` (mixture of isomers): 189 to 191 °C.
`C=CCc1cc(Cc2cnc(N)nc2N)c2cccnc2c1OC` yielded a melting point of 227 to 228 °C.
To `CCSc1scnc1C(=O)O` belongs 158 to 159 °C; to `CCOC(=O)c1ccc2[nH]c(C(=O)OCc3ccccc3)cc2c1`, 123 °C; to `CNc1nc(Br)cc(S(=O)(=O)c2ccccc2)n1`, 142 to 143 °C.
The same measure for `CC(C)(C)Sc1c(CC(C)(C)C(=O)O)n(Cc2ccc(Cl)cc2)c2ccc(OCc3ccc4ccccc4n3)cc12`: 208 °C; for `Oc1ccc2c(c1)C(C(Cl)(Cl)Cl)OC(C(Cl)(Cl)Cl)O2` (stereo unspecified): 167 to 169 °C.
To `COc1cc(OC)c(OC)cc1C=CC=O` belongs 140 °C; to `COC(=O)CCNCc1ccc(-c2cc3ncnc(Nc4ccc5[nH]ccc5c4)c3s2)cc1`, 105 to 118 °C.
Regarding `COc1ccc(C(=O)Nc2ccc(-c3ccc(C)cc3Cl)cc2)cc1CCCN(C)C`, the melting point lay in the range of 63 to 66 °C.
The same measure for `O=C(C=Cc1cccc(F)c1)C=Cc1cccc(F)c1`: 96 to 97 °C; for `CCCC(CCC)CCCC(N)=O`: 44 °C.
As to `CC(C)(O)C(=O)c1ccc(Oc2ccc(C(=O)C(C)(C)O)cc2)cc1`, the melting point fell in the range of 96 to 99 °C.
To `CCOC(=O)C1=C(C)NC2=C(C(=O)OC2)C1c1ccccc1OC` (stereo unspecified) belongs 219 to 220 °C.
To `CCN(CC)CCSC1=C(C#N)C(c2ccccc2)(c2cccs2)C(=O)N1` (stereo unspecified) belongs 165 °C.
To `C=CCc1c(NC(=O)C(F)(F)F)ccc2c(=O)cc(C(=O)OCC)oc12` belongs 136 to 137 °C; to `N#Cc1cc(Cl)cc(CO)c1`, 110 to 111 °C.
Consider `Cc1ccc(-n2ccc3c(Cl)nn(C)c(=O)c32)c(C)c1`, for which the melting point lay in the range of 119 to 120 °C.
For `COc1cccc(-n2c(-c3ccccc3)cc(=O)c(C)c2-c2ccccc2)c1`, the melting point fell in the range of 183 to 185 °C.
The compound `COc1c(C(C)=O)cnc2c([N+](=O)[O-])cccc12` gave a melting point of 100 to 105 °C.
`CCCOc1ccc(S(=O)(=O)N2CCC(C(=O)OCC)CC2)cc1-c1nc2cc(Cl)c([N+](=O)[O-])cc2c(=O)[nH]1` had a melting point of 203 to 204 °C.
To `CC(C)c1cc(C(C)C)c(OCC(=O)O)c(C(C)C)c1` belongs 105 to 108 °C; to `CS(=O)c1ncc2ccc(=O)[nH]c2n1` (stereo unspecified), 237 to 242 °C.
The compound `Nc1cccc2c1CNC2` registered a melting point of 81 to 85 °C.
To `CC(c1ccccc1N1CCCCC1)C(C(N)=O)c1ccc(C(=O)N(C)C)cc1` (stereo unspecified) belongs 148 to 150 °C.
As for `CC(=O)OC1CSC(Oc2cccnc2-c2ccc(C)o2)C(OC(C)=O)C1OC(C)=O` (stereo unspecified), the melting point came to 128 °C.
To `CN(CCNC(=O)c1nc(Cl)c(N)nc1N)CCC(=O)NCCN` belongs 140 to 142 °C.
Turning to `COC(=O)Cc1ccc2nc(C(F)(F)F)cc(O)c2c1`, the melting point was 192 to 193 °C.
The same measure for `CCn1c(=O)c2[nH]c(/C=C/c3ccc(-c4ccccc4)cc3)nc2n(CC)c1=O`: over 270 °C; for `O=C(c1ccccc1Cl)c1ccccc1C#CCN1C(=O)c2ccccc2C1=O`: 149 to 150 °C; for `CCCc1nc2c(N)nc3ccccc3c2n1CCOCCCCl`: 131 to 132 °C.
As for `CC(OC(=O)C1N2C(=O)C(NC(=O)Cc3ccccc3)C2S(=O)C1(C)C)C1CC1` (stereo unspecified), the melting point lay in the range of 158 to 159 °C.
To `COc1cc2c(cc1OC)C(=O)C(CN1CCC3(CC1)C(=O)NCN3c1ccccc1)C2` (stereo unspecified) belongs 174 to 177 °C; to `O=C(O)c1cc(-n2c(-c3ccc(Br)cc3)cc3c2CCC3)ccc1O`, 215 to 216 °C.
The same measure for `CC1C[C@@H]2[C@H](O1)[C@@H](NC(=O)OC(C)(C)C)CN2Cc1ccccc1` (relative stereo): 56 to 60 °C; for `CSc1[nH]cc(CCc2ccccc2)c1[N+](=O)[O-]`: 198 to 200 °C.
`CC1(C)Oc2ccc(C#N)cc2[C@@H](N2CC(OCc3ccccc3)=CC2=O)[C@@H]1O` (relative stereo) registered a melting point of 248 °C.
Compound `CC(C)n1c2c(c(-c3ccccc3)nc1=O)CCCCCCCCCC2` registered a melting point of 173 to 176 °C.
`COc1nc2cc(C)c(C)c(N)c2nc1OC`: the melting point was 166 to 167 °C.
The same measure for `CC(C)CC(NC(=O)C(NC(=O)OCc1ccccc1)C(C)C)C(=O)NC(CCCCNC(=O)OCc1ccccc1)C(=O)Oc1cccc2ccccc12` (stereo unspecified): 171 to 174 °C.
The same measure for `CCOC(=O)Cc1cccc(-c2nc(COc3ccc(CO)cc3OC)c(C)o2)c1`: 96 to 98 °C; for `COc1ccc(NC(=O)c2ccc(Cl)c(Cl)c2)cc1[N+](=O)[O-]`: 215 to 218 °C.
To `CCOC(=O)c1sc(-c2ccc3c(=O)n(CC(C)C)c(CNC(=O)OC(C)(C)C)c(-c4ccccc4)c3c2)nc1C` belongs 201 to 202 °C; to `CCCCSc1ccc(C2CC(=O)C(C(=O)CC)=C(O)C2)cc1[N+](=O)[O-]` (stereo unspecified), 102 °C.
For `CCC1(O)CC(=O)OCc2c1ccn(Cc1cc3cc4c(cc3nc1I)OCCO4)c2=O` (stereo unspecified), the melting point was 165 to 167 °C.
The same measure for `CCOC(=O)c1ncn(-c2nncs2)c1S`: 182 to 185 °C; for `O=S1(=O)NCN(C2CC2)c2ccc(Cl)cc21`: 159 to 161 °C; for `CN1CC(CCCCN2CCN(c3ncccn3)CC2)OC1=O` (stereo unspecified): 74 to 76 °C.
The same measure for `CCc1c(Sc2cc(C)cc(C)c2)[nH]c(=O)[nH]c1=O`: 224 to 225 °C.
To `Nc1cccc(-c2ccc(CCN(CC3CCCCC3)CC3CCCCC3)cc2)n1` belongs 75 to 85 °C; to `OC(c1nn(-c2c(Cl)cc(C(F)(F)F)cc2Cl)cc1C1CC1(Br)Br)C(F)(F)F` (stereo unspecified), 119 to 121 °C; to `CC(C)(C)NCC(=O)NCCn1ccc2ncnc(Nc3ccc(Oc4cccc5sncc45)c(Cl)c3)c21`, 178 to 180 °C.
Turning to `O=C1Nc2ccc(Br)cc2C12CCCCC2`, the melting point was in the range of 196 to 199 °C.
To `Clc1ccc(CN2CC=C(/C=C/c3ccc4c(c3)OCO4)CC2)cc1` belongs 122 to 124 °C; to `O=C1c2ccc(Br)cc2C(=O)c2ccc(Br)cc21`, over 280 °C.
The same measure for `CCN1C=C(C(=O)O)C(=O)CC1c1ccccc1` (stereo unspecified): 148 to 150 °C; for `CCCC(=O)c1cnc2c(OC)cccc2c1Nc1ccc(O)cc1`: 270 to 272 °C.
Take `COc1cc(NC(C)=O)ccc1OCCN1CCN(c2ccccc2F)CC1`: the melting point lay in the range of 118 to 119 °C.
The same measure for `C=Cc1c(N)nc(-c2ccc(Cl)c(OC)c2F)nc1C(=O)O`: 167 to 168 °C; for `CC1(C)Oc2ccc(C#N)cc2[C@@H](n2c(=O)[nH]c3ccccc32)[C@@H]1O` (relative stereo): 255 to 257 °C; for `CC(=O)NCCS(=O)C1(Cl)CC2CC(=O)N2C1C(=O)OCc1ccccc1` (stereo unspecified): 89 to 93 °C.
`COc1ccc(OC2COc3ccc(OCc4ccc5ccccc5n4)cc3C2O)cc1` (stereo unspecified) returned a melting point of 131 to 132 °C.
The same measure for `CN(C)c1ccc(C=Cc2ccc(N)cc2)cc1`: 168 °C.
